# Values of other authors, collected in US20220054659A1, “PSMA-TARGETED PAMAM DENDRIMERS FOR SPECIFIC DELIVERY OF IMAGING, CONTRAST AND THERAPEUTIC AGENTS” (The Johns Hopkins University, priority 2018, published 2022).
# Molecular target: PSMA (Homo sapiens, UniProt Q04609)
# Sequence (Q04609 whole entry, species assumed): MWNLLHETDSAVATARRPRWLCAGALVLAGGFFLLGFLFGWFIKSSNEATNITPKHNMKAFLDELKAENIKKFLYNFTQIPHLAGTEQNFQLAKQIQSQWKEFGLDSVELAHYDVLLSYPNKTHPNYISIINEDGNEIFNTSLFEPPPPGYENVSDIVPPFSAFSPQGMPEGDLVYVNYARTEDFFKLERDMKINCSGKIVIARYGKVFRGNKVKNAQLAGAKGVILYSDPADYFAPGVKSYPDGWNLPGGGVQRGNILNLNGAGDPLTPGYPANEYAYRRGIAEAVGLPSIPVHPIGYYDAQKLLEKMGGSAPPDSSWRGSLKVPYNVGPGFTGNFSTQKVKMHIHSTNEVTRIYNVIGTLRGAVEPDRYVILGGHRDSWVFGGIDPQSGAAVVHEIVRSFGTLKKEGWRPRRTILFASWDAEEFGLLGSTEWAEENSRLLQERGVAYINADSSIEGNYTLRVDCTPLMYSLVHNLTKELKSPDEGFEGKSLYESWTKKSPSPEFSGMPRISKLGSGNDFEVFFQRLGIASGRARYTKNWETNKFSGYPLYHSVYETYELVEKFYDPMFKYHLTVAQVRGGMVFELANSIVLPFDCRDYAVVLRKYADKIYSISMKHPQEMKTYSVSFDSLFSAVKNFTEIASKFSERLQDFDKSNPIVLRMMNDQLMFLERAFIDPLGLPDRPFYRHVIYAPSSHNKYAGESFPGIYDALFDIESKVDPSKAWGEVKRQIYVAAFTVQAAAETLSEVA
compound,measurement,value
NCCCC[C@H](NC(=O)N[C@@H](CCC(=O)O)C(=O)O)C(=O)O [Lys-Glu-urea],affinity to PSMA,picomolar
